Experiments:
Conditions in all cases: Compound concentration 1000.0 nM
[1] = target: Tyrosine-protein kinase Fes/Fps (Homo sapiens) (UniProt P07332)
[2] = target: T1, Ephrin type-B receptor 4 (Homo sapiens) (UniProt P54760)
T1 sequence (whole entry): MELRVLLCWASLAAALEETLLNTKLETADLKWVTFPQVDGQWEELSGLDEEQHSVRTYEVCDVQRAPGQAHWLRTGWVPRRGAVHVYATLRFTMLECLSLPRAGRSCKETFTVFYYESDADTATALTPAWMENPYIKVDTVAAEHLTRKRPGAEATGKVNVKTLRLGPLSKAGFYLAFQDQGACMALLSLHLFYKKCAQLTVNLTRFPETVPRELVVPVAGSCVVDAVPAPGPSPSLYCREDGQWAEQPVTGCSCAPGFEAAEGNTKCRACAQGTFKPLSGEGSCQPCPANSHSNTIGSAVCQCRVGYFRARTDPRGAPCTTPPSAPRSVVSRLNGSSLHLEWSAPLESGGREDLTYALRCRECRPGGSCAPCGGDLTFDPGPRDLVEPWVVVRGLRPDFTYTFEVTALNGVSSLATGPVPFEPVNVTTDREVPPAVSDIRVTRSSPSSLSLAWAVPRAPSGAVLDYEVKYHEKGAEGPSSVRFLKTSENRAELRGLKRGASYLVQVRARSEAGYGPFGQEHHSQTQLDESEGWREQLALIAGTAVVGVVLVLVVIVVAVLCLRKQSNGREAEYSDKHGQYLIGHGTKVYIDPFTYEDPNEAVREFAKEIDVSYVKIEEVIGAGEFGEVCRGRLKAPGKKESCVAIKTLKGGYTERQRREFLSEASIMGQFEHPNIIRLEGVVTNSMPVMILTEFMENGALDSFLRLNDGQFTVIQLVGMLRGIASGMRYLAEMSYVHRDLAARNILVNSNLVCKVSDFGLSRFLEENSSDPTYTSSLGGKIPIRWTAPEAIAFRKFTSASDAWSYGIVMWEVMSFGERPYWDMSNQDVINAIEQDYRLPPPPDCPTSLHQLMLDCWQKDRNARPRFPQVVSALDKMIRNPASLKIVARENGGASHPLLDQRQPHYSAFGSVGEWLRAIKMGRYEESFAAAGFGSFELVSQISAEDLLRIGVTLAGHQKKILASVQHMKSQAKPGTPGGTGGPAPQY

[3] = target: Ephrin type-A receptor 2 (Homo sapiens) (UniProt P29317)
[4] = tested on: Tyrosine-protein kinase ABL1 (Homo sapiens), P00519 [F317L]
[5] = target: Receptor tyrosine-protein kinase erbB-3 (Homo sapiens) (UniProt P21860)
Sequence of Receptor tyrosine-protein kinase erbB-3 (Homo sapiens) (P21860 whole entry): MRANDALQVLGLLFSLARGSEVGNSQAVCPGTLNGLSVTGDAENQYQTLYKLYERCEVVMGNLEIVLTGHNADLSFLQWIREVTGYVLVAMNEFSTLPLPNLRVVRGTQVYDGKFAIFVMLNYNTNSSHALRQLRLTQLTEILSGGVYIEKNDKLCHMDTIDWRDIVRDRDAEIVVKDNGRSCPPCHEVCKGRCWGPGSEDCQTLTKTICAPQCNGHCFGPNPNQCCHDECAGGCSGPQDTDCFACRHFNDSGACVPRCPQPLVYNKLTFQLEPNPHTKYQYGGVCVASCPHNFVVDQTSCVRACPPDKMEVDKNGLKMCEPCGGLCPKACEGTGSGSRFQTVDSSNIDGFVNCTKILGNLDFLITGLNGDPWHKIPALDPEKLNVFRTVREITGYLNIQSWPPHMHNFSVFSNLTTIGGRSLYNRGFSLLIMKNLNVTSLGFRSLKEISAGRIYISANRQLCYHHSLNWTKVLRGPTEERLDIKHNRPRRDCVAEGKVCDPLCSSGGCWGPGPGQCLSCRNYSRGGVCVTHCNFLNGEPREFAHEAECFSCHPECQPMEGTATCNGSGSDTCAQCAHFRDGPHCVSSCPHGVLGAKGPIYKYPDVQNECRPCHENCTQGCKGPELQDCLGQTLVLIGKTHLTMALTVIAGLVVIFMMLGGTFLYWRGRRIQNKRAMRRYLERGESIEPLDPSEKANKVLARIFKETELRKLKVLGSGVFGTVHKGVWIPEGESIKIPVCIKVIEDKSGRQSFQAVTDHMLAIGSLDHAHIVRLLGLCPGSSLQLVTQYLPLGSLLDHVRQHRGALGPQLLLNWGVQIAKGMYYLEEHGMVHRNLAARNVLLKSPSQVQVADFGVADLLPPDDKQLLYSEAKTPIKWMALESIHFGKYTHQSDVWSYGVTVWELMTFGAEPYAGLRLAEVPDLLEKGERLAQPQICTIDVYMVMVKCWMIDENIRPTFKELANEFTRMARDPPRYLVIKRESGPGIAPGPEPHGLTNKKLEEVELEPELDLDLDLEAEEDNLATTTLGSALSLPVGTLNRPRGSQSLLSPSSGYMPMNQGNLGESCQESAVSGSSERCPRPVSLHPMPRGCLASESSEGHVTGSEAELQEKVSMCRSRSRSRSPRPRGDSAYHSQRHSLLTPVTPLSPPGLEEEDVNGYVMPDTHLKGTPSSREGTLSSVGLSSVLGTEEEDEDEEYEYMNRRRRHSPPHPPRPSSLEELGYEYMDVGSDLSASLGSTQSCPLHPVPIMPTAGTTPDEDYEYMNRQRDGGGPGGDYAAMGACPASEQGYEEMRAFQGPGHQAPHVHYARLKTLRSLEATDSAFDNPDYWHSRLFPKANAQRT

[6] = target: Serine/threonine-protein kinase pim-1 (Homo sapiens) (UniProt P11309)
Sequence of Serine/threonine-protein kinase pim-1 (Homo sapiens) (P11309 whole entry, looked up): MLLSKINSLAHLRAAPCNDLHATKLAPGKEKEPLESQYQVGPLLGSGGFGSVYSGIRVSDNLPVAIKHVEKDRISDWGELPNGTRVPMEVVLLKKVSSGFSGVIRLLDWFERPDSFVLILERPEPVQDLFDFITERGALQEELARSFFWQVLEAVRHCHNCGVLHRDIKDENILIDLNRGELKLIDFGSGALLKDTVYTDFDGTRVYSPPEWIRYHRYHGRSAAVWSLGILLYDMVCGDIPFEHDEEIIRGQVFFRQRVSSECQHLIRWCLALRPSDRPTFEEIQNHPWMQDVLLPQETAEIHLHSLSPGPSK

[7] = target: T2, Tyrosine-protein kinase TXK (Homo sapiens) (UniProt P42681)
T2 sequence (whole entry): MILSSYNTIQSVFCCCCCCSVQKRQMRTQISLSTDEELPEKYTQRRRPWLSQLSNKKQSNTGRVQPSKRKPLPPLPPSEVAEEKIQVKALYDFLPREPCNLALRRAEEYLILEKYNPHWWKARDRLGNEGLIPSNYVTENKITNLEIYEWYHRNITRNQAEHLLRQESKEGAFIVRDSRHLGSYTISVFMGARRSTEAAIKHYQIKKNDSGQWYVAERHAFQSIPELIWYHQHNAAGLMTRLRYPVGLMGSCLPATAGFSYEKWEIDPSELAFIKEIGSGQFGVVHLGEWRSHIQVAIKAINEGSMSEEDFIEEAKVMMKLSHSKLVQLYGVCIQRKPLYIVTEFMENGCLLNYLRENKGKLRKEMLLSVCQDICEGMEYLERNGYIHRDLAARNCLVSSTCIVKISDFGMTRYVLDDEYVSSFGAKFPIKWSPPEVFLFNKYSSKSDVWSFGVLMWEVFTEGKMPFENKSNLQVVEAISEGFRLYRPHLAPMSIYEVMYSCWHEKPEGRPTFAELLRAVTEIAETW

[8] = target: G protein-coupled receptor kinase 4 (Homo sapiens) (UniProt P32298)
Sequence of G protein-coupled receptor kinase 4 (Homo sapiens) (P32298 whole entry, looked up): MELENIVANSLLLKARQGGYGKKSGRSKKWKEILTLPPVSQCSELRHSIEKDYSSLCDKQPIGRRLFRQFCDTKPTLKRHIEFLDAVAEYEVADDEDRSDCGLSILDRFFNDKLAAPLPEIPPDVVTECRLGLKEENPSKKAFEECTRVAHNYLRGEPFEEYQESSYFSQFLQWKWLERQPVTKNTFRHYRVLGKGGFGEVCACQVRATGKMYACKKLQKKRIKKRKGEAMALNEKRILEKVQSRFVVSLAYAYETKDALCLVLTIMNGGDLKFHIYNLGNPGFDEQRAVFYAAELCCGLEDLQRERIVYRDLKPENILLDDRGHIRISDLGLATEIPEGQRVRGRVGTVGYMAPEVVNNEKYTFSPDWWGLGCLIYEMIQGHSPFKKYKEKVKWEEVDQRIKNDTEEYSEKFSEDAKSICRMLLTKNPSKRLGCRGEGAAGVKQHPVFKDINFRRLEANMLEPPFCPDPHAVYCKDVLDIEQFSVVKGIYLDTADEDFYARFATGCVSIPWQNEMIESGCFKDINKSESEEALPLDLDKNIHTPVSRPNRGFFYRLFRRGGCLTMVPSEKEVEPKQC

[9] = target: Microtubule-associated serine/threonine-protein kinase 1 (Homo sapiens) (UniProt Q9Y2H9)
Sequence of Microtubule-associated serine/threonine-protein kinase 1 (Homo sapiens) (Q9Y2H9 whole entry, looked up): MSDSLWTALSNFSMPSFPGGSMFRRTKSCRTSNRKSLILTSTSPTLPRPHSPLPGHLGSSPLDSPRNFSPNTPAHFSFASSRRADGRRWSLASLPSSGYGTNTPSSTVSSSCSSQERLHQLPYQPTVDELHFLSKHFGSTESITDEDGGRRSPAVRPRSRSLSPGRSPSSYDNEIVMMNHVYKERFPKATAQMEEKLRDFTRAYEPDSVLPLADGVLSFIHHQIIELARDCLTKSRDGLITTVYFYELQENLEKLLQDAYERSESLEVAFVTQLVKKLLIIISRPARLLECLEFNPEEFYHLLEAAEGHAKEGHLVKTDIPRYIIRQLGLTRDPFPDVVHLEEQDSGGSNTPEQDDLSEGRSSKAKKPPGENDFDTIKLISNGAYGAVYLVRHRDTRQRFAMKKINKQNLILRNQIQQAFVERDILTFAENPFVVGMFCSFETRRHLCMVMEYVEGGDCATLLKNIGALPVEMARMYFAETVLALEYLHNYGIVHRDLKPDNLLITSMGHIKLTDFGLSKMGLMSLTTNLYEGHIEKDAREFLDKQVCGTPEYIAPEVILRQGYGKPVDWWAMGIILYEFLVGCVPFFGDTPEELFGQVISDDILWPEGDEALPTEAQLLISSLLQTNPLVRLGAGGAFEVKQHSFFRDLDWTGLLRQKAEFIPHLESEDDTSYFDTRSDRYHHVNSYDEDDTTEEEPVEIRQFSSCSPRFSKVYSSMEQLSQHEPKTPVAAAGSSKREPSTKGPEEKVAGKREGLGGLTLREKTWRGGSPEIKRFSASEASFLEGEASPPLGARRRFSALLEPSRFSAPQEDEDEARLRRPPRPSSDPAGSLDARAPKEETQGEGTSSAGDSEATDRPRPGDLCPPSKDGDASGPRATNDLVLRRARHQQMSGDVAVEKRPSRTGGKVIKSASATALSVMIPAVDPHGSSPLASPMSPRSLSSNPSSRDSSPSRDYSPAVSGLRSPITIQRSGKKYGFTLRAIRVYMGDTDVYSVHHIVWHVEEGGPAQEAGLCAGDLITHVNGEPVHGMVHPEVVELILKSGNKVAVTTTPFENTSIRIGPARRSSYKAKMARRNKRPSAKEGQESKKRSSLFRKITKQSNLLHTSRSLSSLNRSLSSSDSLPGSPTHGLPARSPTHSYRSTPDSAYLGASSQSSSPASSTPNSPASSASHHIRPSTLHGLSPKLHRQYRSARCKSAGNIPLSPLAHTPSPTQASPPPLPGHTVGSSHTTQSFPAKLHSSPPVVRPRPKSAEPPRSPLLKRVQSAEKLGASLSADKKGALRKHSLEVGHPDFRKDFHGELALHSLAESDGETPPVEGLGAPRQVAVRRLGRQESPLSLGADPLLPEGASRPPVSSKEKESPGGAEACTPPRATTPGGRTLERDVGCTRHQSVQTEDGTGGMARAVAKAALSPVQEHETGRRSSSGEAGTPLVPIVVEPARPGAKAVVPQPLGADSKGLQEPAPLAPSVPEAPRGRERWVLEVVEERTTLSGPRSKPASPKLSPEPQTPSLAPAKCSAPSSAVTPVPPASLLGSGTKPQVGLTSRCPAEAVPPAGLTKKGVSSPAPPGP

[10] = tested on: Tyrosine-protein kinase ABL1 (Homo sapiens), P00519 [T315I]
[11] = target: T3, Serine/threonine-protein kinase haspin (Homo sapiens) (UniProt Q8TF76)
T3 sequence (whole entry): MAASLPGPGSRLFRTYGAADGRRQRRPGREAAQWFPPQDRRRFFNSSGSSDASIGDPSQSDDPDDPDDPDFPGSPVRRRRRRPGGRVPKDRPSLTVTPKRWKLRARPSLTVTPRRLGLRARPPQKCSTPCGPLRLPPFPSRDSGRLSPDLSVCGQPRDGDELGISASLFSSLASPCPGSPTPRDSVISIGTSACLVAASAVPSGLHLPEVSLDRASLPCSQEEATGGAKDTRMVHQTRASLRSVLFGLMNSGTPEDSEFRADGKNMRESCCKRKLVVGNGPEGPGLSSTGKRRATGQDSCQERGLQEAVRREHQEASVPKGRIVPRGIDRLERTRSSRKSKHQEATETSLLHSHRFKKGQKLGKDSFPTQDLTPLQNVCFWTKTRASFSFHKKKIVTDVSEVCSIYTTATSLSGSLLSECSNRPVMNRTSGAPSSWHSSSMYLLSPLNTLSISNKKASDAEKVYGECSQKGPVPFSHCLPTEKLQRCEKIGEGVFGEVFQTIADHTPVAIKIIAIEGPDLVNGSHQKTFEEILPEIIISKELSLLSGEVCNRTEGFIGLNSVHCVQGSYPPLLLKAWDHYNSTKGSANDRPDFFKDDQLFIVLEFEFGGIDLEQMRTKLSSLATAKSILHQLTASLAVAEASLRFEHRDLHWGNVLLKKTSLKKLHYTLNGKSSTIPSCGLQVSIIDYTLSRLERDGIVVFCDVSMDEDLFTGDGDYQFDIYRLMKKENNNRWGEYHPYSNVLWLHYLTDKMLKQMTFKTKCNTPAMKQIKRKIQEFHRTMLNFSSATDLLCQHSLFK

Measured: residual activity

Sequence of Tyrosine-protein kinase Fes/Fps (Homo sapiens) (P07332 whole entry): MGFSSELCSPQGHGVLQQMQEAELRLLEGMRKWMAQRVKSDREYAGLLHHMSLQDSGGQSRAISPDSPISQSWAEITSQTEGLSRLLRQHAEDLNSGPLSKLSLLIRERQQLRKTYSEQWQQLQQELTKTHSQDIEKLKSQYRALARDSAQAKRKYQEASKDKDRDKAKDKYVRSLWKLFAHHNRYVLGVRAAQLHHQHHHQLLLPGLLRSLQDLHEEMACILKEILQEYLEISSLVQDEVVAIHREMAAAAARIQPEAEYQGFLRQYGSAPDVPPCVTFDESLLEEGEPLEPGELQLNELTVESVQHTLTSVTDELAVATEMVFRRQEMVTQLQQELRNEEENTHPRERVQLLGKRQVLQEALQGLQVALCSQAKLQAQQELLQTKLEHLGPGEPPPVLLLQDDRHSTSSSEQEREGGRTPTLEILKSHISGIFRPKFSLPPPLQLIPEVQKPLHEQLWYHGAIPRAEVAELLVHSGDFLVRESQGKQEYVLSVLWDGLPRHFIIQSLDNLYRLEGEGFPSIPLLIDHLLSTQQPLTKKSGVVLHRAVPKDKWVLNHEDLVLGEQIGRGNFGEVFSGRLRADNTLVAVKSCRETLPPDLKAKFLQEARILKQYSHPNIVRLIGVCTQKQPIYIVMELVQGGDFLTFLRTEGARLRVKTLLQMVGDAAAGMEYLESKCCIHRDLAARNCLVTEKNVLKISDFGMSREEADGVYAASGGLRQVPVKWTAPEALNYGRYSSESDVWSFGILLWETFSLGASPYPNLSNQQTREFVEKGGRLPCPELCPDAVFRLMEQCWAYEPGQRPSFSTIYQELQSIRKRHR

Cc1nc(C2CCN(C(=O)c3ccc(OC(F)(F)F)cc3N)CC2)c2ncc(N3CCN(C)CC3)cc2n1 [BAY-693]
inactive: [1] 96% | [2] 92% | [3] 100% | [4] 97% | [5] 88% | [6] 100% | [7] 100% | [8] 96% | [9] 100% | [10] 89% | [11] 100%

CN1CCN(c2cnc3c(C4CCN(C(=O)c5ccc(OC(F)(F)F)cc5N)CC4)ncnc3c2)CC1 [BAY-885]
inactive: [1] 100% | [2] 100% | [3] 100% | [4] 100% | [5] 84% | [6] 90% | [7] 88% | [8] 100% | [9] 100% | [10] 100% | [11] 100%
